This passage reports relative viability results from the supplement of paper PMC10307832.

What all share (experiment): relative viability (nuclei count vs DMSO), 5 days (fraction); higher = more cells survive
Compound in the test “Bortezomib + OSI-027”: CC(C)C[C@H](NC(=O)[C@H](Cc1ccccc1)NC(=O)c1cnccn1)B(O)O [Bortezomib] + COc1cccc2cc(-c3nc([C@H]4CC[C@H](C(=O)O)CC4)n4ncnc(N)c34)[nH]c12 [OSI-027] (partner 0.5 µM)
In short, it runs like this: (§1)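 The day after seeding in 1536-well plates, lung cancer cell lines were treated by pin tool with a single drug, or with a fixed anchor-drug dose together with five library-drug doses (not always all listed) in √10 steps. After 5 days, a combined fix-and-stain solution (final 0.05% Triton X-100, 1% formaldehyde, 1 ug/ml Hoechst) was added. Nuclei counted on 4× images gave relative viability as treated counts over vehicle counts, reported as the median of duplicate plates.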

Compound in test [1]: CC1=CC(=NN1)NC2=CC(=NC(=N2)/C=C/C3=CC=CC=C3)N4CCN(CC4)C + Cc1nc(Nc2ncc(C(=O)Nc3c(C)cccc3Cl)s2)cc(N2CCN(CCO)CC2)n1 [Dasatinib] (partner 0.075 µM)
In short, it runs like this: as §1

Compound in test [2]: CC1=CC(=NN1)NC2=CC(=NC(=N2)/C=C/C3=CC=CC=C3)N4CCN(CC4)C + Nc1ncn([C@H]2C[C@H](O)[C@@H](CO)O2)c(=O)n1 [Decitabine] (partner 2 µM)
In outline: as §1

Compound in the test “Obatoclax + Lapatinib”: COC1=CC(c2cc3ccccc3[nH]2)=N/C1=C\c1[nH]c(C)cc1C [Obatoclax] + CS(=O)(=O)CCNCc1ccc(-c2ccc3ncnc(Nc4ccc(OCc5cccc(F)c5)c(Cl)c4)c3c2)o1 [Lapatinib] (partner 2 µM)
In short, it runs like this:
as §1

For NCI-H1793, the relative viability in the test with Bortezomib + OSI-027 (first compound 0.0002 µM) was 0.278; in the test with Bortezomib + OSI-027 (first compound 0.000632 µM), 0.213; in the test with Bortezomib + OSI-027 (first compound 0.002 µM) it was 0.272; with Bortezomib + OSI-027 (first compound 0.006325 µM) it was 0.223; in the test with Bortezomib + OSI-027 (first compound 0.02 µM), 0.145; in test [1] (first compound 0.08 µM), 0.379. Besides, the relative viability turned out to be 0.446 in test [1] (first compound 0.253 µM); 0.365 in test [1] (first compound 0.8 µM); 0.138 in test [1] (first compound 2.53 µM); 0.0977 in test [1] (first compound 8 µM); 0.488 in test [2] (first compound 0.08 µM); 0.554 in test [2] (first compound 0.253 µM). The relative viability is 0.43 in test [2] (first compound 0.8 µM); 0.127 in test [2] (first compound 2.53 µM); 0.123 in test [2] (first compound 8 µM); 0.802 with Obatoclax + Lapatinib (first compound 0.01 µM); 0.68 in the test with Obatoclax + Lapatinib (first compound 0.03162 µM); 0.61 with Obatoclax + Lapatinib (first compound 0.1 µM). Besides, the relative viability stood at 0.717 with Obatoclax + Lapatinib (first compound 0.3162 µM) and 0.836 in the test with Obatoclax + Lapatinib (first compound 1 µM).
For NCI-H2126, the relative viability is 0.737 with Bortezomib + OSI-027 (first compound 0.0002 µM); 0.652 with Bortezomib + OSI-027 (first compound 0.000632 µM); 0.622 with Bortezomib + OSI-027 (first compound 0.002 µM); 0.62 with Bortezomib + OSI-027 (first compound 0.006325 µM); 0.663 with Bortezomib + OSI-027 (first compound 0.02 µM); 0.64 in test [1] (first compound 0.08 µM). The relative viability in test [1] (first compound 0.253 µM) came out at 0.696; in test [1] (first compound 0.8 µM), 0.662; in test [1] (first compound 2.53 µM), 0.476; in test [1] (first compound 8 µM), 0.189; in test [2] (first compound 0.08 µM), 0.602; in test [2] (first compound 0.253 µM), 0.595. In addition, the relative viability is 0.55 in test [2] (first compound 0.8 µM); 0.561 in test [2] (first compound 2.53 µM); 0.27 in test [2] (first compound 8 µM); 0.736 with Obatoclax + Lapatinib (first compound 0.01 µM); 0.733 with Obatoclax + Lapatinib (first compound 0.03162 µM); 0.809 in the test with Obatoclax + Lapatinib (first compound 0.1 µM). Moreover, the values for the relative viability with Obatoclax + Lapatinib (first compound 0.3162 µM) and in the test with Obatoclax + Lapatinib (first compound 1 µM) were 0.739 and 0.802, respectively.
In the case of HCC-827, the relative viability with Bortezomib + OSI-027 (first compound 0.0002 µM) stood at 0.837; in the test with Bortezomib + OSI-027 (first compound 0.000632 µM), 0.747; with Bortezomib + OSI-027 (first compound 0.002 µM) it was 0.859; with Bortezomib + OSI-027 (first compound 0.006325 µM), 0.236; with Bortezomib + OSI-027 (first compound 0.02 µM), 0.103; in test [1] (first compound 0.08 µM), 0.318. Moreover, the relative viability turned out to be 0.255 in test [1] (first compound 0.253 µM); 0.282 in test [1] (first compound 0.8 µM); 0.228 in test [1] (first compound 2.53 µM); 0.373 in test [1] (first compound 8 µM); 0.196 in test [2] (first compound 0.08 µM); 0.353 in test [2] (first compound 0.253 µM). In addition, the relative viability in test [2] (first compound 0.8 µM) worked out at 0.337; in test [2] (first compound 2.53 µM) it was 0.285; in test [2] (first compound 8 µM) it was 0.189; with Obatoclax + Lapatinib (first compound 0.01 µM), 0.183; with Obatoclax + Lapatinib (first compound 0.03162 µM), 0.195; in the test with Obatoclax + Lapatinib (first compound 0.1 µM), 0.226. The figures for the relative viability with Obatoclax + Lapatinib (first compound 0.3162 µM) and in the test with Obatoclax + Lapatinib (first compound 1 µM) were 0.229 and 0.271, respectively.
Consider ABC-1, for which the relative viability turned out to be 0.476 in the test with Bortezomib + OSI-027 (first compound 0.0002 µM); 0.296 with Bortezomib + OSI-027 (first compound 0.000632 µM); 0.193 with Bortezomib + OSI-027 (first compound 0.002 µM); 0.183 with Bortezomib + OSI-027 (first compound 0.006325 µM); 0.2 in the test with Bortezomib + OSI-027 (first compound 0.02 µM); 0.496 in test [1] (first compound 0.08 µM). The relative viability was 0.692 in test [1] (first compound 0.253 µM); 0.522 in test [1] (first compound 0.8 µM); 0.207 in test [1] (first compound 2.53 µM); 0.145 in test [1] (first compound 8 µM); 1.02 in test [2] (first compound 0.08 µM); 0.954 in test [2] (first compound 0.253 µM). Moreover, the relative viability in test [2] (first compound 0.8 µM) was 1.1; in test [2] (first compound 2.53 µM) it was 0.811; in test [2] (first compound 8 µM), 0.268; in the test with Obatoclax + Lapatinib (first compound 0.01 µM), 0.87; in the test with Obatoclax + Lapatinib (first compound 0.03162 µM), 1.15; in the test with Obatoclax + Lapatinib (first compound 0.1 µM) it was 1.25. Further, the results for the relative viability in the test with Obatoclax + Lapatinib (first compound 0.3162 µM) and in the test with Obatoclax + Lapatinib (first compound 1 µM) were 1.04 and 1.33, respectively.
In the case of BEN, the relative viability was 0.302 in the test with Bortezomib + OSI-027 (first compound 0.0002 µM); 0.288 in the test with Bortezomib + OSI-027 (first compound 0.000632 µM); 0.28 in the test with Bortezomib + OSI-027 (first compound 0.002 µM); 0.259 in the test with Bortezomib + OSI-027 (first compound 0.006325 µM); 0.167 with Bortezomib + OSI-027 (first compound 0.02 µM); 0.339 in test [1] (first compound 0.08 µM). Besides, the relative viability in test [1] (first compound 0.253 µM) was found to be 0.306; in test [1] (first compound 0.8 µM) it was 0.32; in test [1] (first compound 2.53 µM), 0.257; in test [1] (first compound 8 µM) it was 0.164; in test [2] (first compound 0.08 µM), 0.633; in test [2] (first compound 0.253 µM), 0.835. The relative viability was 0.706 in test [2] (first compound 0.8 µM); 0.381 in test [2] (first compound 2.53 µM); 0.337 in test [2] (first compound 8 µM); 0.726 with Obatoclax + Lapatinib (first compound 0.01 µM); 0.696 with Obatoclax + Lapatinib (first compound 0.03162 µM); 0.305 with Obatoclax + Lapatinib (first compound 0.1 µM). Further, the relative viability with Obatoclax + Lapatinib (first compound 0.3162 µM) turned out to be 0.792; with Obatoclax + Lapatinib (first compound 1 µM), 0.698.
In the case of NCI-H23, the relative viability in the test with Bortezomib + OSI-027 (first compound 0.0002 µM) is 0.579; with Bortezomib + OSI-027 (first compound 0.000632 µM) it was 0.335; with Bortezomib + OSI-027 (first compound 0.002 µM), 0.542; with Bortezomib + OSI-027 (first compound 0.006325 µM) it was 0.282; in the test with Bortezomib + OSI-027 (first compound 0.02 µM), 0.138; in test [1] (first compound 0.08 µM), 0.769. In addition, the relative viability in test [1] (first compound 0.253 µM) turned out to be 0.764; in test [1] (first compound 0.8 µM), 0.815; in test [1] (first compound 2.53 µM), 0.683; in test [1] (first compound 8 µM), 0.137; in test [2] (first compound 0.08 µM), 0.302; in test [2] (first compound 0.253 µM), 0.326. The relative viability turned out to be 0.29 in test [2] (first compound 0.8 µM); 0.177 in test [2] (first compound 2.53 µM); 0.141 in test [2] (first compound 8 µM); 1.13 with Obatoclax + Lapatinib (first compound 0.01 µM); 1.23 with Obatoclax + Lapatinib (first compound 0.03162 µM); 0.805 with Obatoclax + Lapatinib (first compound 0.1 µM). Besides, the relative viability in the test with Obatoclax + Lapatinib (first compound 0.3162 µM) is 0.619; with Obatoclax + Lapatinib (first compound 1 µM) it was 0.458.
Take UMC-11: the relative viability in the test with Bortezomib + OSI-027 (first compound 0.0002 µM) was 0.461; in the test with Bortezomib + OSI-027 (first compound 0.000632 µM), 0.472; with Bortezomib + OSI-027 (first compound 0.002 µM), 0.493; in the test with Bortezomib + OSI-027 (first compound 0.006325 µM), 0.325; in the test with Bortezomib + OSI-027 (first compound 0.02 µM), 0.148; in test [1] (first compound 0.08 µM), 0.487. Also, the relative viability stood at 0.426 in test [1] (first compound 0.253 µM); 0.329 in test [1] (first compound 0.8 µM); 0.163 in test [1] (first compound 2.53 µM); 0.125 in test [1] (first compound 8 µM); 0.722 in test [2] (first compound 0.08 µM); 0.609 in test [2] (first compound 0.253 µM). Moreover, the relative viability in test [2] (first compound 0.8 µM) was 0.562; in test [2] (first compound 2.53 µM), 0.282; in test [2] (first compound 8 µM), 0.209; with Obatoclax + Lapatinib (first compound 0.01 µM), 1.06; with Obatoclax + Lapatinib (first compound 0.03162 µM) it was 1.04; with Obatoclax + Lapatinib (first compound 0.1 µM), 0.973. In addition, the values for the relative viability in the test with Obatoclax + Lapatinib (first compound 0.3162 µM) and with Obatoclax + Lapatinib (first compound 1 µM) were 0.613 and 0.346, respectively.
